Measurements published in PubChem BioAssay (NCI).
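96-well plates; 48 h exposure; 5 concentrations. Endpoints by linear interpolation between flanking doses. Not reached: highest tested concentration assigned. TGI denotes the concentration required for complete inhibition of growth.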

Experiments:
Test in all cases: DTP human tumour cell line panel, 48 h
HT29 colon = tested on: HT29 colon
PC-3 prostate = tested on: PC-3 prostate
SF-539 CNS = tested on: SF-539 CNS
KM12 colon = tested on: KM12 colon
EKVX NSCLC = tested on: EKVX NSCLC
BT-549 breast = tested on: BT-549 breast
SF-268 CNS = tested on: SF-268 CNS
MDA-MB-231 breast = tested on: MDA-MB-231 breast
OVCAR-3 ovarian = tested on: OVCAR-3 ovarian
ACHN renal = tested on: ACHN renal
HL-60(TB) leukemia = tested on: HL-60(TB) leukemia
HOP-62 NSCLC = tested on: HOP-62 NSCLC
TK-10 renal = tested on: TK-10 renal
MALME-3M melanoma = tested on: MALME-3M melanoma
OVCAR-4 ovarian = tested on: OVCAR-4 ovarian
UACC-62 melanoma = tested on: UACC-62 melanoma
SK-MEL-2 melanoma = tested on: SK-MEL-2 melanoma
CCRF-CEM leukemia = tested on: CCRF-CEM leukemia
NCI/ADR-RES ovarian = tested on: NCI/ADR-RES ovarian

Compound	TGI (HT29 colon) [µM]	TGI (PC-3 prostate) [µM]	TGI (SF-539 CNS) [µM]	TGI (KM12 colon) [µM]	TGI (EKVX NSCLC) [µM]	TGI (BT-549 breast) [µM]	TGI (SF-268 CNS) [µM]	TGI (MDA-MB-231 breast) [µM]	TGI (OVCAR-3 ovarian) [µM]	TGI (ACHN renal) [µM]	TGI (HL-60(TB) leukemia) [µM]	TGI (HOP-62 NSCLC) [µM]	TGI (TK-10 renal) [µM]	TGI (MALME-3M melanoma) [µM]	TGI (OVCAR-4 ovarian) [µM]	TGI (UACC-62 melanoma) [µM]	TGI (SK-MEL-2 melanoma) [µM]	TGI (CCRF-CEM leukemia) [µM]	TGI (NCI/ADR-RES ovarian) [µM]
Cc1cc(/N=C/c2ccc(Cl)cc2)n(-c2ccccc2)n1	> 100	> 100	> 100	> 100	> 100	> 100	> 100	> 100	> 100	> 100	91.5	> 100	> 100	> 100	> 100	> 100	> 100	> 100	> 100
Clc1ccc(Cn2cc(/C=N/n3cnnc3)c3ccccc32)cc1	> 100	> 100	> 100	> 100	> 100	> 100	> 100	74.5	> 100	> 100	> 100	> 100	28.7	> 100	> 100	> 100	82.9	> 100	> 100
CCCCC1Cc2cc(OC)ccc2-c2n1c1cc(OC)ccc1[n+]2C (stereo unspecified) (tested in a mixture with another compound)	> 29.2	30.4	> 44.9	10.7	20.2	79	6.09	20.6	> 72.1	48	1.71	> 61.7	31.9	9.71	20.7	3.03	13	25.3	> 100
CCOC(=O)C(C)(Cc1ccc(O)cn1)NC(=O)c1ccccc1 (stereo unspecified)	> 100	> 100	> 100	> 100	> 100	> 100	> 100	> 100	> 100	> 100	> 100	> 100	> 100	> 100	> 100	> 100	> 100	> 100	> 100
CCOC(=O)C1=C(C)N(CC(C)C)C2(O)C(OC)CC(=O)C3C(=O)N(c4ccccc4)C(=O)C132 (stereo unspecified)	57.1	> 100	> 100	90	> 100	> 100	> 100	> 100	> 100	72	69.2	> 100	> 100	96.7	> 100	47.6	51.1	> 100	> 100
Cn1c(SCc2c[nH]c3ccccc23)nnc1-c1ccc(Cl)cc1Cl	35.5	36.5	17.7	25.2	49.6	87.5	> 100	66.3	35.1	96.8	25.6	21.4	47.2	45.8	34.2	39.3	36.2	45.4	27.3
Cc1cc(NS(=O)(=O)c2ccc(NC(=O)c3ccc4nc5ccccc5c(Nc5ccc(S(=O)(=O)Nc6cc(C)on6)cc5)c4c3)cc2)no1	> 50	> 50	> 50	> 50	> 50	> 50	> 50	> 50	> 50	> 50	> 50	> 50	> 50	> 50	> 50	> 50	> 50	> 50	> 50
O=C(c1ccccc1)c1ccc2nc3n(c2c1)C(c1c(Cl)cccc1Cl)SC3 (stereo unspecified)	31	> 100	> 59.4	19.5	78.6	> 100	> 100	> 100	> 100	> 38	> 53.5	> 44.4	> 100	31.3	> 80.3	> 36.5	78.5	> 100	35.8
O=S(=O)(/N=C(\NO)Nc1ccc(Cl)cc1)c1cc(S(=O)(=O)c2ccccc2)cs1	47	33.9	32.4	64.7	35.4	45.7	37	56.1	31.1	42.3	7.19	33.5	45.4	28.5	57.3	43.1	45.9	43.5	> 100
